For this experiment, the system named is HERV-K102 replication (cDNA production) in cultured cord blood cells. The experiment can be described thus: Screening for agents able to modulate HERV-K102 replication (cDNA production) in cultured cord blood cells, real time PCR ddCt ratio. It counts as cell-based, human. The conditions noted are these: for effect on HERV-K102 replication in cultured CB cells: approximately 10^-6 M or equivalent, harvested day 5. An excerpt: First we wished to show in normal lymphocytes that there are increased levels of HERV-K102 pol DNA over and above genomic when HERV-K102 associated particles are made. For this we extracted DNA and then performed the HERV-K102 ddCt ratio. Please see FIG. 15 for the sequences and location of the forward and reverse primers and the probe used for the real time PCR. […] We developed a ddCt ratio real time PCR method (relative quantitation) which takes the difference between HERV-K102 pol and 18 s RNA Ct's (delta Ct), and subtracts this from the same performed on commercial normal adult genomic DNA (male) (the delta delta Ct). Then we use the algorithm 2−(ddCt) to calculate the relative ratio of HERV-K102 to genomic DNA. This index when elevated above normal ratios (see Table 3 for these ratios) for fluids with contaminating cells (eg plasma and saliva) indicates an excess of non-genomic DNA templates and could be taken as a surrogate marker for putative particles in the sample. […] Since real time PCR is so sensitive, and we were only interested in the DNA copy number of HERV-K102 pol, we subsequently used the Qiagen DNA Mini kit for DNA extractions of plasma.
Commercially available master mix buffer can be purchased with or without Amperase-UNG a highly purified enzyme Uracil-N-Glycosylase, which when included in the buffer for the real time PCR will digest any DNA or cDNA templates containing uracil. […] Thus, if any isolated DNA becomes digested it must be non-genomic.
Finally we investigated certain natural products, drugs and peptide cytokines for their ability to regulate HERV-K replication such as measured in CB cells (Table 7). These agents were tested at approximately 10^−6 M or equivalent. We harvested the study on day 5. […] Tuftsin is naturally cleaved from the FC region of IgG and is considered an immunoenhancing substance and the 1/5000 concentration is usually employed to show its enhancing effects on the activation of monocytes.
Cord blood (CB) isolation. Under aseptic conditions, cord blood was collected into heparinized tubes and peripheral blood mononuclear cells (PBMC) were prepared as follows: the blood was centrifuged at 2700 rpm for 10 minutes, and the buffy coat placed in 5 mls of media (defined as IMDM plus 0.2% penicillin/gentamycin). The mixture was layered onto Ficoll-Paque (Pharmacia #17-0840-03) in a ratio of 1/3 Ficoll to blood suspension. The tubes were centrifuged 30 minutes at 1600 rpm.
A general note: In qPCR the cycle at which signal appears reflects the starting amount.

Where [1] appears, read: cord blood harvested Day 5, agents at approximately 10^-6 M or equivalent, Day 5 control 2.19.
[2] abbreviates: cord blood harvested Day 5, agents at approximately 10^-6 M or equivalent, relative to Day 5 control ddCt ratio.
The mark [3] stands for this setting: cord blood Day 5, uracil-N-glycosylase in master mix, agents at approximately 10^-6 M or equivalent.
Where [4] appears, read: Tuftsin 1/5000, cord blood Day 5.

Five molecules from patent publication US7964341B2, “Human endogenous retrovirus K102 with foamy-virus-like properties and uses thereof” (priority 2005, dated 2011) can be followed below.

For the molecule `C[C@]12CC[C@H](O)CC1=CC[C@@H]1[C@@H]2CC[C@]2(C)C(=O)CC[C@@H]12` [DHEA, dihydroepiandrosterone], the “effect on HERV-K102 replication in cultured CB cells” value (shortened to “effect … in cultured CB cells”) is “enhanced HERV-K102 replication”. Besides, the “HERV-K102 ddCt Ratio” value under setting [1] is given as 2.60. In addition, the “Level of Control Activity (%)” value under setting [2] is 119%.
`C[C@]12CC[C@@H]3c4ccc(O)cc4CC[C@H]3[C@@H]1CC[C@@H]2O` [E2, estradiol]: the “Level of Control Activity (%)” value under setting [2] worked out at 133%.
`CC1=C(c2ccc(O)cc2)[C@H](c2ccc(OCCN3CCCCC3)cc2)Oc2cc(O)ccc21` [EM652]: the “effect … in cultured CB cells” value is “enhanced HERV-K102 replication”. Further, the “ddCt performed with UNG” value under setting [3] was 2.06 (100%). Under setting [1], the “HERV-K102 ddCt Ratio” value is reported as 3.07. The “Level of Control Activity (%)” value under setting [2] came out at 140%.
Regarding `CC/C(=C(\c1ccccc1)c1ccc(OCCN(C)C)cc1)c1ccccc1` [Tamoxifen, tamoxifen], the “effect … in cultured CB cells” value was “enhanced HERV-K102 replication”. Also, the “ddCt performed with UNG” value under setting [3] is reported as 2.64 (63%). The “HERV-K102 ddCt Ratio” value under setting [1] amounted to 3.43. For the same molecule, the “Level of Control Activity (%)” value under setting [2] is recorded as 157%.
In the case of Tuftsin, the “Level of Control Activity (%)” value by setting is: (Tuftsin 1/500, cord blood Day 5) 65.7%; under setting [4], 189%. Besides, the “HERV-K102 ddCt Ratio” value is reported as 1.44 (Tuftsin 1/500, cord blood Day 5, control 2.19) and 4.14 (Tuftsin 1/5000, cord blood Day 5, control 2.19). Further, the “ddCt performed with UNG” value under setting [4] worked out at 2.10. Besides, the “effect on HERV-K102 replication” value (Tuftsin at high levels (1/500)) is “inhibited HERV-K102 replication” and the “effect on HERV-K102 replication” value (Tuftsin at low levels (1/5000)) was “enhanced HERV-K102 replication”. Also, for the setting “depending on concentration, refers to Table 7”, the “effect on HERV-BZU activation” value was “can enhance or inhibit HERV-BZU activation”.
